# Experimental data from US10166225B2, “Method for treating osteoporosis” (Exelixis, Inc., priority 2011, dated 2019).
# Experiments:
# [1] = tested on: KS483 mouse osteoprogenitor cells; experiment: Osteoblast differentiation assay (cellular ALP activity at day 8); assay type: cell-based; settings: reference stimulator, 10 nM
# Procedure: In the third part, KS483 mouse osteoprogenitor cells were cultured for 8 days, after which the formed mature osteoblasts were quantitated by measuring the amount of intracellular alkaline phosphatase (ALP) activity. […] The effects on osteoblasts were studied using KS483 mouse osteoprogenitor cells that can be induced to differentiate into bone-forming osteoblasts. […] In the osteoblast differentiation assay, the cells were cultured for 8 days, after which the formed mature osteoblasts were quantitated by measuring the amount of intracellular alkaline phosphatase (ALP) activity. […] A culture system was established that can be used as an in vitro model for studying the effects of anabolic and estrogen-like compounds on osteoblast differentiation and activity. In this culture system mouse KS483 cells first proliferate and then differentiate into osteoblasts capable of forming mineralized bone nodules in the presence of ascorbic acid and ß-glycerophosphate (Fagerlund et al. 2009). The test and reference compounds are added into the cell cultures concomitantly with the medium change, and their effects on the differentiation and activity of osteoblasts are determined. Cellular ALP, a marker of osteoblast differentiation, is determined from the cell lysates as described earlier (Lowry et al. 1954). Secreted PINP, a marker of organic bone matrix formation, is determined from the culture medium using a commercially available method (Rat/Mouse PINP EIA, IDS Ltd, Boldon, UK). Calcium deposition, an index of inorganic bone matrix formation, is measured using a commercially available calcium assay (Roche Diagnostics). Mouse KS483 cells were cultured in T-75 tissue culture flasks in aMEM supplemented with 10% charcoal-stripped fetal bovine serum until 80-90% confluence. The cells were incubated in a CO2 incubator in humidified atmosphere of 95% air and 5% carbon dioxide at 37° C. After reaching 80-90% confluence, subcultures were prepared. Cells were removed from the flasks with trypsin treatment and counted. For induction of the maturation of osteoblasts and bone formation, the immature osteoblastic cells were plated in type I collagen-coated 96-well plates. The cells were cultured for 8 days with a supplement of ascorbic acid ([…]), and half of the media was changed every 3-4 days. The test compound and control substance (E2) were added in the beginning of the culture period and when the medium was changed. The cultures were stopped at day 8 by removing the culture media from the wells, and cell lysates were prepared. Cellular ALP activity and total protein content (Protein Assay, Bio-Rad Laboratories Inc, CA, USA) were quantitated by using VICTOR2™ Multilabel Counter (PerkinElmer, Waltham, Mass., USA).
# [2] = tested on: rat ovariectomy (OVX) model; experiment: Short-term effects on body weight, uterine weight and bone turnover markers in the rat ovariectomy (OVX) model; assay type: in vivo, rat (Sprague-Dawley); set-up: key to Body weight, change during the first week / Body weight, change during the in-life phase / Relative uterine weight at day 14 / Serum PINP levels, change during the in-life phase / Serum OC levels, change during the in-life phase / Serum CTX levels, change during the in-life phase / Serum TRACP 5b activity, change during the in-life phase: An upwards arrow (↑) indicates a statistically significant increase; a downwards arrow (↓) a statistically significant decrease; One asterisk (*) indicates a statistical significance with a p-value<0.05; two asterisks (**) with a p-value<0.01; three asterisks (***) with a p-value<0.001; NS=Non-significant
# From the text: The objective of this study was to investigate short-term effects of Compound 1 on biochemical serum markers of bone metabolism in a prevention study in a rat ovariectomy (OVX) model for postmenopausal osteoporosis. 17β-estradiol (E2) was used as a reference compound. The following five experimental groups were included in the study:
# Each group contained eight female rats (Sprague-Dawley) that were three months of age at the beginning of in-life phase of the study. Before the start of the in-life phase, animals were weighed, their blood samples were harvested, and animals were randomized to study groups by stratification according to body weight and serum levels of procollagen type I N-terminal propeptide (PINP). At the beginning of the in-life phase, animals were weighed and operated. Treatment was started one day after the operations and continued once a day for two weeks. Sterile water was used as vehicle in groups 1 and 2. Body weight was determined after one week of treatment and treatment doses were adjusted accordingly. After two weeks of treatment, animals were weighed, their blood samples were harvested, animals were terminated, and their relative uterine weight was determined. For analyzing short-term effects of treatments, levels of four bone metabolism biomarkers were determined in serum samples harvested before the start and at the end of the in-life phase. These biomarkers included PINP as a marker of bone formation, N-terminal mid-fragment of osteocalcin (OC) as a general marker of bone turnover, C terminal cross-linked telopeptides of type I collagen (CTX) as a marker of bone resorption, and tartrate-resistant acid phosphatase isoform 5b (TRACP 5b) as a marker of osteoclast number. Serum levels at day −7 were used as baseline levels and serum levels at day 14 as levels affected by operations and treatments.
# Each group contained eight female rats (Sprague-Dawley) that were three months of age at the beginning of in-life phase of the study. Animals were randomized to study groups by stratification according to their body weight and serum levels of procollagen type I N-terminal propeptide (PINP) measured one week before the start of the in-life phase (at day −7). At the beginning of the in-life phase (at day 0), animals were weighed, animals in groups 2-5 were ovariectomized, and animals in group 1 SHAM-operated. Treatment was started one day after the operations and continued once a day for two weeks (up to day 13). Sterile water was used as vehicle in groups 1 and 2. Body weight was determined at the beginning of the in-life phase (at day 0), one week after the start of the inlife phase (at day 7), and at the end of the in-life phase (at day 14). Treatment doses were adjusted according to the latest body weight obtained. After two weeks of treatment (at day 14), animals were weighed, their blood samples were harvested, animals were terminated, and their relative uterine weight was determined. For analyzing short-term effects of treatments, levels of four bone metabolism biomarkers were measured in serum samples harvested before the start of the in-life phase (at day −7) and at the end of the in-life phase (at day 14). These biochemical serum markers included PINP, N-terminal mid-fragment of osteocalcin (OC), C-terminal cross-linked telopeptides of type I collagen (CTX), and tartrate-resistant acid phosphatase isoform 5b (TRACP 5b). Serum levels obtained at day −7 were used as baseline levels and serum levels obtained at day 14 as levels affected by surgical operations and treatments.
# Biochemical markers of bone metabolism are useful tools for monitoring osteoporosis therapy and for prediction of fracture risk and long-term changes in bone mineral density (Cremers et al. 2008). […]
# [3] = tested on: KS483 mouse osteoprogenitor cells; experiment: Osteoblast activity assay (PINP at day 11, calcium deposition at day 13); assay type: cell-based; settings: reference stimulator, 10 nM
# Procedure: The effects on osteoblasts were studied using KS483 mouse osteoprogenitor cells that can be induced to differentiate into bone-forming osteoblasts. […] In the osteoblast differentiation assay, the cells were cultured for 8 days, after which the formed mature osteoblasts were quantitated by measuring the amount of intracellular alkaline phosphatase (ALP) activity. […] A culture system was established that can be used as an in vitro model for studying the effects of anabolic and estrogen-like compounds on osteoblast differentiation and activity. In this culture system mouse KS483 cells first proliferate and then differentiate into osteoblasts capable of forming mineralized bone nodules in the presence of ascorbic acid and ß-glycerophosphate (Fagerlund et al. 2009). The test and reference compounds are added into the cell cultures concomitantly with the medium change, and their effects on the differentiation and activity of osteoblasts are determined. Cellular ALP, a marker of osteoblast differentiation, is determined from the cell lysates as described earlier (Lowry et al. 1954). Secreted PINP, a marker of organic bone matrix formation, is determined from the culture medium using a commercially available method (Rat/Mouse PINP EIA, IDS Ltd, Boldon, UK). Calcium deposition, an index of inorganic bone matrix formation, is measured using a commercially available calcium assay (Roche Diagnostics). Mouse KS483 cells were cultured in T-75 tissue culture flasks in aMEM supplemented with 10% charcoal-stripped fetal bovine serum until 80-90% confluence. The cells were incubated in a CO2 incubator in humidified atmosphere of 95% air and 5% carbon dioxide at 37° C. After reaching 80-90% confluence, subcultures were prepared. Cells were removed from the flasks with trypsin treatment and counted. For induction of the maturation of osteoblasts and bone formation, the immature osteoblastic cells were plated in type I collagen-coated 96-well plates. The cells were cultured for 13 days with a supplement of ascorbic acid (50 μg/ml) and ß-glycerophosphate (5 mM), and half of the media was changed every 3-4 days. The test compound and control substance (E2) were added in the beginning of the culture period and when the medium was changed. Secreted PINP was measured from the culture medium at day 11 as a marker of organic bone matrix formation. The cultures were stopped at day 13 by removing the culture media from the wells and adding hydrochloric acid. Calcium deposited into the formed bone matrix was quantitated by using VICTOR2™ Multilabel Counter (PerkinElmer, Waltham, Mass., USA).
# [4] = tested on: human bone marrow-derived CD34+ osteoclast precursor cells; experiment: Osteoclast differentiation assay (secreted TRACP 5b at day 7); assay type: cell-based; settings: reference inhibitor, 5 nM
# Procedure: The study was performed in four parts. In the first part, human bone marrow-derived CD34+ osteoclast precursor cells were cultured on bovine bone slices for 7 days, after which the formed osteoclasts were quantitated by measuring tartrate-resistant acid phosphatase 5b activity (TRACP 5b) in the culture medium.
# The objective of this study was to investigate the effects of Compound 1 selected by the Sponsor on differentiation and activity of human osteoclasts and mouse osteoblasts in vitro. The effects on osteoclasts were studied using a model where bone marrow-derived human osteoclast precursor cells are cultured on bovine bone slices for 7 days in conditions favouring osteoclast differentiation, and allowed to differentiate into bone-resorbing osteoclasts. After completion of osteoclast differentiation at day 7, the culture medium was removed and new culture medium favouring osteoclast activity was added into the wells. The mature osteoclasts were then cultured for an additional 3 days, allowing them to resorb bone. In the osteoclast differentiation assay, the test compounds and a reference inhibitor osteoprotegerin (OPG) were added into cultures at day 0. In the osteoclast activity assay, the test compounds and a reference inhibitor E64 were added into cultures at day 7. Seven concentrations in 8 replicates were tested in both assays. Tartrate-resistant acid phosphatase 5b activity (TRACP 5b) was measured from the culture medium collected at day 7 as an index of the number of osteoclasts formed in each well during the differentiation period. C-terminal cross-linked telopeptides of type I collagen (CTX) was measured from the culture medium collected at day 10 to quantitate bone resorption during days 7-10.
# A human osteoclast culture system was developed for use in this study where CD34+ osteoclast precursor cells derived from human bone marrow (Poietics® Human Osteoclast Precursors, Lonza, Walkersville, USA) are cultured on bovine bone slices in the presence of appropriate growth factors, including M-CSF and RANK-ligand (Rissanen et al. 2009). The cells are first allowed to differentiate into mature bone-resorbing osteoclasts, and the formed osteoclasts are then allowed to resorb bone. The test and reference compounds are added into the cell cultures at the beginning of the differentiation and/or the resorption period, and their effects on the differentiation and/or resorbing activity of osteoclasts are determined.
# Secreted TRACP 5b is determined from the culture medium after the differentiation period using a commercially available method (BoneTRAPÒ, IDS Ltd, Boldon, UK). Secreted TRACP 5b describes accurately the number of osteoclasts formed in each well during the differentiation period. CTX is determined from the culture medium after the resorption period using a commercially available method (CrossLapsÒ for cultures, IDS Ltd, Boldon, UK). CTX describes accurately the amount of bone collagen degradation products released into the culture medium in each well during the resorption period.
# In this study, human bone marrow-derived CD34+ stem cells (10000 cells/well) were suspended in culture medium and allowed to attach to bovine bone slices in 96-well tissue culture plates. The culture medium (containing 10% FBS, OCP BulletKit® Lonza, Walkersville, USA) was supplemented with appropriate amounts of important growth factors favoring osteoclast differentiation and activity, including M-CSF (33 ng/ml, OCP BulletKit® Lonza, Walkersville, USA) and RANK-ligand (66 ng/ml, OCP BulletKit® Lonza, Walkersville, USA) in 200 μl of medium. The cells were incubated in a CO2 incubator in humidified atmosphere of 95% air and 5% carbon dioxide at 37° C. for 7 days. The test compounds and reference compound OPG were added at day 0. Supernatants collected at day 7 were stored at −70° C. until analysis of TRACP 5b. TRACP 5b was measured from the culture medium (20 μl/sample) using VICTOR2™ Multilabel Counter (PerkinElmer, Waltham, Mass., USA). […]
# [5] = OVX rats vs OVX vehicle, E2 4 μg/kg/d s.c.
# [6] = OVX rats, 17β-estradiol 4 μg/kg/d s.c., two weeks
Molecule,effect on osteoblast differentiation [1],"Body weight, change during the first week [2, 5]","Body weight, change during the in-life phase [2, 5]","Relative uterine weight at day 14 [2, 5]","Serum CTX levels, change during the in-life phase [2, 5]","Serum OC levels, change during the in-life phase [2, 5]","Serum PINP levels, change during the in-life phase [2, 5]","Serum TRACP 5b activity, change during the in-life phase [2, 5]","OVX-induced gain in body weight [2, 6]","OVX-induced increase in serum CTX levels [2, 6]","OVX-induced increase in serum OC levels [2, 6]","OVX-induced increase in serum PINP levels [2, 6]","OVX-induced reduction in relative uterine weight [2, 6]","OVX-induced reduction in serum TRACP 5b activity [2, 6]",effect on osteoblast activity [3],effect on osteoclast differentiation [4]
"C[C@]12CC[C@@H]3c4ccc(O)cc4CC[C@H]3[C@@H]1CC[C@@H]2O [Compound E2, 17β-estradiol, reference compound]",stimulated significantly,↓ **,↓ **,↑ **,↓ ***,↓ ***,↓ **,NS,prevented,prevented,prevented,prevented,prevented,did not affect,stimulated significantly,–
"OPG: Osteoprotegerin, reference inhibitor of osteoclast differentiation (protein, UniProt O00300 22-401, looked up) Tumor necrosis factor …: ETFPPKYLHYDEETSHQLLCDKCPPGTYLKQHCTAKWKTVCAPCPDHYYTDSWHTSDECLYCSPVCKELQYVKQECNRTHNRVCECKEGRYLEIEFCLKHRSCPPGFGVVQAGTPERNTVCKRCPDGFFSNETSSKAPCRKHTNCSVFGLLLTQKGNATHDNICSGNSESTQKCGIDVTLCEEAFFRFAVPTKFTPNWLSVLVDNLPGTKVNAESVERIKRQHSSQEQTFQLLKLWKHQNKDQDIVKKIIQDIDLCENSVQRHIGHANLTFEQLRSLMESLPGKKVGAEDIEKTIKACKPSDQILKLLSLWRIKNGDQDTLKGLMHALKHSKTYHFPKTVTQSLKKTIRFLHSFTMYKLYQKLFLEMIGNQVQSVKISCL",–,–,–,–,–,–,–,–,–,–,–,–,–,–,–,inhibited significantly
